Reference: patent publication US20220110919A1, “METHODS OF MODULATING LEUKOCYTES ACTIVATION AND THROMBOCYTE CLEARANCE WITH INHIBITORS OF SPECIFIC NEURAMINIDASE ISOENZYMES” (The Governors of the University of Alberta, priority 2018, published 2022)
Where two headings read alike, the source gives them in different places.

What was measured:
[1] = biological target: T1, NEU1 (Homo sapiens, UniProt Q99519); experiment: Inhibition assay, 4MU-NANA cleavage, NEU1; format: biochemical
T1 construct: His; made in house; host or cells: HEK293 cells (cell lysate, unpurified)
Experimental: (§1) 4MU-NANA was then added to the mixture, making the final concentration of 4MU-NANA as 50 μM and the total volume of the reaction mixture as 20 μL. […] Assays were performed with duplicates for each point and IC50 was obtained by plotting the data with Graphpad™ Prism 5.0.

[2] = biological target: T2, NEU3 (Homo sapiens, UniProt Q9UQ49); experiment: Inhibition assay, 4MU-NANA cleavage, NEU3; format: biochemical
T2 construct: MBP (N); made in house; host or cells: E. coli
T2 sequence (Q9UQ49 1-428): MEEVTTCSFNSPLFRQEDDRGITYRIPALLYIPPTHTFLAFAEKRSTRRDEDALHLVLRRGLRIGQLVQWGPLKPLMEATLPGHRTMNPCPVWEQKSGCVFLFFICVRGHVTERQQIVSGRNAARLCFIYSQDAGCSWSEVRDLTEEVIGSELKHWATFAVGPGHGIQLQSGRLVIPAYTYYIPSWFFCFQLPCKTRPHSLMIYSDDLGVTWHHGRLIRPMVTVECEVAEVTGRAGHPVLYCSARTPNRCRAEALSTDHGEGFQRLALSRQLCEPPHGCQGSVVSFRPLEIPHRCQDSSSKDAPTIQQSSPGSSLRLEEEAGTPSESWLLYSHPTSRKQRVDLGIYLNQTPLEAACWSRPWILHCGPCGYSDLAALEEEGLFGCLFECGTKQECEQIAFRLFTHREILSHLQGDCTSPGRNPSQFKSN
Experimental: as §1

[3] = biological target: T3, NEU4 (Homo sapiens, UniProt Q8WWR8); experiment: Inhibition assay, 4MU-NANA cleavage, NEU4; format: biochemical
T3 construct: GST; made in house; host or cells: E. coli
T3 sequence (Q8WWR8 1-484): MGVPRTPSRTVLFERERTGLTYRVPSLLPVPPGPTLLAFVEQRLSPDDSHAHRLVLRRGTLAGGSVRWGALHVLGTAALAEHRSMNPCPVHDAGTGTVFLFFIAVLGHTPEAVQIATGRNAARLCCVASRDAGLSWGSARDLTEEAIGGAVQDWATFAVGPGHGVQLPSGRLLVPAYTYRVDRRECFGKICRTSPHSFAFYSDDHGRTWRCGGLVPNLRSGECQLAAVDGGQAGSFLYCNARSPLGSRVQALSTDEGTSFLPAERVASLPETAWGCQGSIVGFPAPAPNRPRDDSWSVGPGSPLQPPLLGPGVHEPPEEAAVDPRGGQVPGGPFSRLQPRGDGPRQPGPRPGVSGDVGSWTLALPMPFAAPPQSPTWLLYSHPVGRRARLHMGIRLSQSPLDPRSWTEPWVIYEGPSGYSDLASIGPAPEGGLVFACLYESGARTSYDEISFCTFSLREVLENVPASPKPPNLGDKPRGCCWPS
Experimental: as §1

[4] = tested on: NEU1, NEU2, NEU3, NEU4; experiment: Target isoenzyme and selectivity from IC50 data of Table I; format: biochemical, human; conditions: from IC50 values of Table I
[5] = biological target: T4, NEU2 (Homo sapiens, UniProt Q9Y3R4); experiment: Inhibition assay, 4MU-NANA cleavage, NEU2; format: biochemical; conditions: 4MU-NANA as the substrate; pH 5.5
T4 construct: MBP (N); made in house; host or cells: E. coli
T4 sequence (Q9Y3R4 whole entry): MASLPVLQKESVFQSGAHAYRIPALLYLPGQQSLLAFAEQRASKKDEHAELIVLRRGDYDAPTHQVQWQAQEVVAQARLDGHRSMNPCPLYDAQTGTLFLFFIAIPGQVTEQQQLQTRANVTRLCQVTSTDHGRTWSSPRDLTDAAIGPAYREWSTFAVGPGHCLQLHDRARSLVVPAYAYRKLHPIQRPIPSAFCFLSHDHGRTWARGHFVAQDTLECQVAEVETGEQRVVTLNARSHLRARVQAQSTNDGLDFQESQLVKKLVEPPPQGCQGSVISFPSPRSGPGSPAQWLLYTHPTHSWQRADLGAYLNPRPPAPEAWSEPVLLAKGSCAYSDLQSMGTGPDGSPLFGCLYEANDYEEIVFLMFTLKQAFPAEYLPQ
Experimental: as §1

[6] = 4MU-NANA as the substrate, pH 4.5, read-out: IC50 NEU1
[7] = compounds of Table I, read-out: IC50 against neu3
[8] = compounds of Table I, read-out: IC50 against neu4
[9] = 4MU-NANA as the substrate, pH 4.5, read-out: IC50 NEU3
[10] = 4MU-NANA as the substrate, pH 4.5, read-out: IC50 NEU4

Structure (SMILES) | IC50 [1, 6] [µM] | IC50 [3, 8] [µM] | IC50 [2, 9] [µM] | other results
CCCCC(C)C(=O)N[C@H]1[C@H]([C@H](O)[C@H](O)CO)OC(C(=O)O)=C[C@@H]1O (mixture of isomers) [compound 72, 5-(2-Methyl)hexanamido(S/R)-2,6-anhydro-3,5-dideoxy-d-glycero-d-galacto-non-2-enonic acid] | 0.55 ± 0.07 |  |  | 
CCCCC(C)C(=O)N[C@H]1[C@H]([C@H](O)[C@H](O)CNC(C)=O)OC(C(=O)O)=C[C@@H]1O (mixture of isomers) [compound 74, 5-(2-Methyl)hexanamido(S/R)-9-acetanamido-2,6-anhydro-3,5-dideoxy-d-glycero-d-galacto-non-2-enonic acid] | 0.42 ± 0.07 |  |  | 
CC(=O)N[C@@H]1C(N=[N+]=[N-])C=C(C(=O)O)OC1CNOCc1ccccc1 (stereo in doubt) [5c] |  |  |  | IC50 [2, 7]: < 1 µM
CC(=O)N[C@H]1[C@H]([C@H](O)[C@H](O)Cn2cc(-c3ccc(C(=O)O)cc3)nn2)OC(C(=O)O)=C[C@@H]1N=[N+]=[N-] [compound 13] | > 500 |  |  | IC50 [5]: > 500 µM; Selectivity [4]: 20
CC(=O)NC1C(N)C=C(C(=O)O)OC1C(O)C(O)Cn1cc(-c2ccc(C(=O)O)cc2)nn1 (stereo not shown) [compound 15] | > 500 |  | > 500 | IC50 [5]: > 500 µM; IC50 [3, 10]: > 500 µM
CC(=O)NC1C(NC(=O)NCCC(=O)O)C=C(C(=O)O)OC1C(O)C(O)Cn1cc(-c2ccc(C(=O)O)cc2)nn1 (stereo not shown) [compound 18] | > 500 |  | > 500 | 
CC(=O)N[C@@H]1C(O)C=C(C(=O)O)OC1C(O)C(O)Cn1cc(CNC(=O)c2ccccc2)nn1 (stereo partly shown) [compound 26] |  | ≤ 3 |  | 
CC(=O)N[C@@H]1C(O)C=C(C(=O)O)OC1C(O)C(O)Cn1cc(-c2ccc(NC(=O)c3ccccc3)cc2)nn1 (stereo partly shown) [compound 27] |  | ≤ 10 |  | 
CC(=O)N[C@H]1C(C(O)C(O)Cn2cc(CO)nn2)OC(C(=O)O)=C[C@H]1O (stereo partly shown) [compound 28, C9-4HMT-DANA] | > 500 |  | 80 ± 10 | IC50 [2, 7]: ≤ 100 µM
CCCC(=O)N[C@H]1[C@H]([C@H](O)[C@H](O)CO)OC(C(=O)O)=C[C@@H]1O [compound 30, 5-Butyramido-2,6-anhydro-3,5-dideoxy-D-glycero-D-galacto-non-2-enonic acid] | 8.4 ± 0.5 | ≤ 10 | 15 ± 2 | IC50 ([1]; compounds of Table I, read-out: IC50 against neu1): ≤ 10 µM; IC50 [3, 10]: 8.4 ± 0.4 µM
[N-]=[N+]=NCC(=O)N[C@@H]1C(O)C=C(C(=O)O)OC1C(O)C(O)CO (stereo partly drawn) [compound 40, 5-(N-2-azidoacetyl)-2,3,5-trideoxy-D-glycero-D-galacto-2-nonulopyranosonic acid] |  | ≤ 10 |  | 
CC(=O)Nc1ccc(C(=O)NC[C@@H](O)[C@@H](O)[C@@H]2OC(C(=O)O)=C[C@H](O)[C@H]2NC(C)=O)cc1 [compound 58, 5-Acetamido-9-(4-acetamido)benzamido-2,6-anhydro-3,5-dideoxy-d-glycero-d-galacto-non-2-enonic acid] |  |  |  | IC50 [2, 7]: ≤ 10 µM
CC(=O)Nc1cccc(C(=O)NC[C@@H](O)[C@@H](O)[C@@H]2OC(C(=O)O)=C[C@H](O)[C@H]2NC(C)=O)c1 [compound 60, 5-Acetamido-9-(3-acetamido)benzamido-2,6-anhydro-3,5-dideoxy-d-glycero-d-galacto-non-2-enonic acid] |  |  |  | IC50 [2, 7]: ≤ 10 µM
CCCCCc1cn(C[C@@H](O)[C@@H](O)[C@@H]2OC(C(=O)O)=C[C@H](O)[C@H]2NC(C)=O)nn1 [compound 63, 5-Acetamido-9-(4-pentyl)triazolyl-2,6-anhydro-3,5-dideoxy-d-glycero-d-galacto-non-2-enonic acid] |  | ≤ 3 |  | IC50 [2, 7]: ≤ 10 µM
CCCCCC(=O)NC[C@@H](O)[C@@H](O)[C@@H]1OC(C(=O)O)=C[C@H](O)[C@H]1NC(=O)CCCCC [compound 64, 5-Hexanamido-9-hexanamido-2,6-anhydro-3,5-dideoxy-d-glycero-d-galacto-non-2-enonic acid] |  |  | > 500 | IC50 [3, 10]: > 500 µM
CCCCC(=O)NC[C@@H](O)[C@@H](O)[C@@H]1OC(C(=O)O)=C[C@H](O)[C@H]1NC(=O)CC [compound 65, 5-Propionamido-9-pentanamido-2,6-anhydro-3,5-dideoxy-D-glycero-D-galacto-non-2-enonic acid] |  |  | > 500 | 
CCCCCC(=O)N[C@H]1[C@H]([C@H](O)[C@H](O)CNC(C)=O)OC(C(=O)O)=C[C@@H]1O [compound 68, 5-Hexanamido-9-acetamido-2,6-anhydro-3,5-dideoxy-D-glycero-D-galacto-non-2-enonic acid] |  |  | > 500 | 
CCCCCC(=O)N[C@H]1[C@H]([C@H](O)[C@H](O)CNC(=O)CC)OC(C(=O)O)=C[C@@H]1O [compound 69, 5-Hexanamido-9-propionamido-2,6-anhydro-3,5-dideoxy-d-glycero-d-galacto-non-2-enonic acid] |  |  | > 500 | 
CCCCCC(=O)N[C@H]1[C@H]([C@H](O)[C@H](O)CNC(=O)CCC)OC(C(=O)O)=C[C@@H]1O [compound 70, 5-Hexanamido-9-butanamido-2,6-anhydro-3,5-dideoxy-D-glycero-D-galacto-non-2-enonic acid] |  |  | > 500 | IC50 [3, 10]: > 500 µM

Second part, led by results:

IC50 [1, 6] [µM] | IC50 [3, 8] [µM] | IC50 [2, 9] [µM] | Structure (SMILES) | other results
 | ≤ 3 |  | COc1ccc(-c2cn(C[C@@H](O)[C@@H](O)[C@@H]3OC(C(=O)O)=C[C@H](O)[C@H]3NC(C)=O)nn2)cc1 [7e] | 
 | ≤ 3 |  | CC(=O)N[C@H]1[C@H]([C@H](O)[C@H](O)Cn2cc(-c3ccc(F)cc3)nn2)OC(C(=O)O)=C[C@@H]1O [7f] | Selectivity [4]: 10
 | ≤ 10 |  | CC(=O)N[C@H]1[C@H]([C@H](O)[C@H](O)Cn2cc(-c3ccc(C(F)(F)F)cc3)nn2)OC(C(=O)O)=C[C@@H]1O [7g] | 
 | ≤ 3 |  | CC(=O)N[C@@H]1C(O)C=C(C(=O)O)OC1C(O)C(O)Cn1cc(-c2ccc(C(=O)O)cc2)nn1 (stereo partly shown) [7h] | 
 | < 1 |  | CC(=O)N[C@@H]1C(O)C=C(C(=O)O)OC1C(O)C(O)Cn1cc(-c2ccc(-c3ccccc3)cc2)nn1 (stereo partly shown) [7i] | 
> 500 |  | > 500 | CCC(=O)N[C@H]1C=C(C(=O)O)O[C@@H]([C@H](O)[C@H](O)CO)[C@@H]1NC(C)=O [25a, 5-Acetamido-2,6-anhydro-4-propionamido-3,4,5-trideoxy-D-glycero-D-galacto-non-2-enonic acid] | IC50 [3, 10]: > 500 µM
> 500 |  | > 500 | CCCCC(=O)N[C@H]1C=C(C(=O)O)O[C@@H]([C@H](O)[C@H](O)CO)[C@@H]1NC(C)=O [25b, 5-Acetamido-2,6-anhydro-4-pentanamido-3,4,5-trideoxy-D-glycero-D-galacto-non-2-enonic acid] | IC50 [3, 10]: > 500 µM
> 500 |  | > 500 | CC(=O)N[C@H]1[C@H]([C@H](O)[C@H](O)CO)OC(C(=O)O)=C[C@@H]1NC(=O)C1CC1 [25c, 5-Acetamido-2,6-anhydro-4-cyclopropanecarboxamido-3,4,5-trideoxy-D-glycero-D-galacto-non-2-enonic acid] | IC50 [3, 10]: > 500 µM
> 500 |  | > 500 | CC(=O)N[C@H]1[C@H]([C@H](O)[C@H](O)CO)OC(C(=O)O)=C[C@@H]1NC(=O)C1CCC1 [25d, 5-Acetamido-2,6-anhydro-4-cyclobutanecarboxamido-3,4,5-trideoxy-D-glycero-D-galacto-non-2-enonic acid] | IC50 [3, 10]: > 500 µM
